Calls of active or inactive are those of the source.
Experiments:
[1] = target: T1, Rac GTPase-activating protein 1 (Homo sapiens, UniProt Q9H0H5); experiment: blockers of MgcRacGAP-driven Rac1 GTP hydrolysis – biochemical, ADP Hunter fluorescence, primary and confirmatory, confirmation (AID 624330); type: functional
T1 sequence (Q9H0H5 whole entry): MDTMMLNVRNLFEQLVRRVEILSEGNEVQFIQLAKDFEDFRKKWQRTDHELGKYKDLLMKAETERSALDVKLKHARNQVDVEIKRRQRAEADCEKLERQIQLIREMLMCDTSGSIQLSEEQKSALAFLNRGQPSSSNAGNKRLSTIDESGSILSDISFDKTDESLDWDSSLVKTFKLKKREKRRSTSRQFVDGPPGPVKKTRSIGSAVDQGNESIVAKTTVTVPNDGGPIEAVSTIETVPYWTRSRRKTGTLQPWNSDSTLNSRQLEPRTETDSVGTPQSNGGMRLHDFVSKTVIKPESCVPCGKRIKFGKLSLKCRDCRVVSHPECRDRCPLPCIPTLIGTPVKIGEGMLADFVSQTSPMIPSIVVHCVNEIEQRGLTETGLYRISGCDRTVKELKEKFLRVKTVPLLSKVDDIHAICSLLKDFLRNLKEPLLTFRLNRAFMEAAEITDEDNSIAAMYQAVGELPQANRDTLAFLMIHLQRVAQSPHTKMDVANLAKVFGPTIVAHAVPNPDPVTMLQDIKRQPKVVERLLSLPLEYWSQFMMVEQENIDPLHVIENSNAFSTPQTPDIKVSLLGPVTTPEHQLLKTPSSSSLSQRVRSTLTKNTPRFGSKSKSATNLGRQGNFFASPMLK

CAAX prenyl protease 2 = target: T2, CAAX prenyl protease 2 (Homo sapiens, UniProt Q9Y256); experiment: inhibition of Ras-converting CAAX protease Rce1 – biochemical, yeast membranes, quenched-peptide fluorescence, cherry-pick, dose response (AID 588849)
T2 sequence (Q9Y256 whole entry): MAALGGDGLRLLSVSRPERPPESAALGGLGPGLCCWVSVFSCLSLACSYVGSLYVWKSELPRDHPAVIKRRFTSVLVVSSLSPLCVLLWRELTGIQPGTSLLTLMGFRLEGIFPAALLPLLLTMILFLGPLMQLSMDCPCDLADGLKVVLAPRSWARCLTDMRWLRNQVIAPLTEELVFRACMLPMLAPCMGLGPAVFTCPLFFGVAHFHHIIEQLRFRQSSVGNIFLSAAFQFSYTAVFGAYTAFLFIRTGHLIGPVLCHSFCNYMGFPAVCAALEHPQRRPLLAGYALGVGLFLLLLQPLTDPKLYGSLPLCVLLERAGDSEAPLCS

[2] = fluconazole-exposed Candida albicans growth modulators – fluorescence, retest, confirmation (AID 2467); type: functional, cell-based
[3] = Cytotoxicity screening for potential Inhibitors of Bacterial Capsule Biogenesis. [Related pubchem assays (depositor defined):AID488970]; type: functional
Bcl-2-related protein A1 = target: T3, Bcl-2-related protein A1 (Mus musculus, UniProt Q07440); type: functional;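 note: confirmatory dose–response counterscreen on Bfl-1, used to check hits from a UBC13 polyubiquitin inhibitor campaign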
T3 sequence (Q07440 whole entry): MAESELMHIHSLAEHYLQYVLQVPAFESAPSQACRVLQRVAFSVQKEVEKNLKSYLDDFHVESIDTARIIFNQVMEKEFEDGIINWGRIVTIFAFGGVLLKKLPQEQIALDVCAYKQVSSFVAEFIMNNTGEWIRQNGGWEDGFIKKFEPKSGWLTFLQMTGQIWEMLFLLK

[4] = target: T4, Ubiquitin-conjugating enzyme E2 N (Homo sapiens, UniProt P61088); type: functional
T4 sequence (P61088 whole entry): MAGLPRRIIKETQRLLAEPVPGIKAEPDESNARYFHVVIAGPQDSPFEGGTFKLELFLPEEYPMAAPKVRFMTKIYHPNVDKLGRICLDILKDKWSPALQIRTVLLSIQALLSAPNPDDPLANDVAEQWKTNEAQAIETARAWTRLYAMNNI

Streptokinase A = target: T5, Streptokinase A (Streptococcus pyogenes serotype M1, UniProt P10520); experiment: viability-normalized secreted streptokinase activity reduction – plasminogen activation absorbance, OD405, dose response (AID 1914); type: functional, Streptococcus pyogenes M1 GAS;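 note: secreted streptokinase activity via plasminogen activation per viability signal from cell pellet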
T5 sequence (P10520 whole entry): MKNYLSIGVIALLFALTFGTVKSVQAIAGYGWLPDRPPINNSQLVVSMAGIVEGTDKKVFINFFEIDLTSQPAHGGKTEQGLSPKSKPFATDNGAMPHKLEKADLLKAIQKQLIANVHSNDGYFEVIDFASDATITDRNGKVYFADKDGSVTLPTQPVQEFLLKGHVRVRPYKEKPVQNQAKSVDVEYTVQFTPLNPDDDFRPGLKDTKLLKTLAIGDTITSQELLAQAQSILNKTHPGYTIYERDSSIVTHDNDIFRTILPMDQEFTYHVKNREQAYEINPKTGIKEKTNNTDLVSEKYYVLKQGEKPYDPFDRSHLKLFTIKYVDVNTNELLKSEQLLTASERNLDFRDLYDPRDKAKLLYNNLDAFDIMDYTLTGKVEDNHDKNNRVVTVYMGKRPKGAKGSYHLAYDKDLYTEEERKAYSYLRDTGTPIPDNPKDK

[5] = target: T6, Endoribonuclease toxin MazF (Escherichia coli K-12, UniProt P0AE70); experiment: substrate-only fluorescence increase artefacts – biochemical, single-stranded RNase substrate, counter-screen for MazEF activator project, dose response (AID 588502); type: functional
T6 sequence (P0AE70 whole entry): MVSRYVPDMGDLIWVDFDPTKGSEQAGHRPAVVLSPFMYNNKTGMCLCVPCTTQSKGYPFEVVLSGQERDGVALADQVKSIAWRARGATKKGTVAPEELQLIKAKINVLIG

Escherichia coli = experiment: microbe, parasite or virus in culture
[6] = test system: Streptococcus sp. 'group A'; experiment: Streptococcus pyogenes SK(-)GAS viability under kanamycin – luminescence, BacTiterGlo, confirmation, counter-screen for streptokinase expression inhibitor project, dose response (AID 1900); type: functional, organism-based
Streptococcus = experiment: GAS UMAA2166 growth inhibition – luminescence, BacTiterGlo, counter-screen for streptokinase expression inhibitor project, dose response (AID 1915); type: functional, organism-based;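 note: potency for reduction of bacterial viability or growth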
[7] = A cytotoxicity screen of small molecule inhibitors of the PhoP region in Salmonella typhi identified in the primary screen. [Related pubchem assays: 1850, 1864, 1985 ]; type: functional
[8] = target: T6, Endoribonuclease toxin MazF; experiment: activation of MazEF endoribonuclease cleavage – biochemical, fluorescence, single-stranded RNA substrate, uHTS hits, dose response (AID 588481); type: functional
[9] = NIH-3T3 fibroblast cytotoxicity, dose response, cytotoxicity control, cell-based, fluorescence, Alamar Blue, secondary assay (AID 2327); type: functional;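 note: NIH-3T3 mouse fibroblasts cultured with fluconazole at 8 µg/mL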
[10] = target: T7, DNA repair protein RAD52 homolog (Homo sapiens, UniProt P43351); type: functional, biochemical
T7 sequence (P43351 whole entry): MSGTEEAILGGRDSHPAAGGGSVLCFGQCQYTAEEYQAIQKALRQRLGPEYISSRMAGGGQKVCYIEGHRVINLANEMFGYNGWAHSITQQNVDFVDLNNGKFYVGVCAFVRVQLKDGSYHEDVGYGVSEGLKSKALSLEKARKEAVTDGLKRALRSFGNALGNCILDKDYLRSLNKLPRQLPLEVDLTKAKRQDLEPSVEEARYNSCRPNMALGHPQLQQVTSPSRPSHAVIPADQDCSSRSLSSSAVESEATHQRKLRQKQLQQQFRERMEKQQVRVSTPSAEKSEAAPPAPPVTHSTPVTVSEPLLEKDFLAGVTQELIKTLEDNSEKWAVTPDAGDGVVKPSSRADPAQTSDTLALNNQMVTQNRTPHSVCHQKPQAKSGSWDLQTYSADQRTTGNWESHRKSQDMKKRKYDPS

Trypsin = Trypsin (Sus scrofa, UniProt P00761); experiment: trypsin protease activity blockade – biochemical, quenched peptide fluorescence, cherry-pick, selectivity assay for Rce1 protease inhibitor project, dose response (AID 488789)
[11] = target: T4, Ubiquitin-conjugating enzyme E2 N; type: functional; remark: listed apart in the source
[12] = loss of viability in HepG2 cells – cell-based, CellTiter-Glo, cherry-picked, cytotoxicity control for Shn3 inhibitor project, dose response (AID 624134); type: functional
[13] = non-specific 3'UTR reporter inhibition in Clone20-Shn3RL – cell-based, Renilla luciferase, cherry-picked, counter-screen for Shn3 inhibitor project, dose response (AID 624133); type: functional
[14] = viability of HCT116 lacking mutant beta-catenin – cell-based, human colon tumor, dose response (AID 1045); type: functional;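 note: HCT116 colon tumor cells with beta catenin knocked out; cells exposed to compound for 60 hours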
[15] = target: T8, Heat shock factor protein 1 (Mus musculus, UniProt P38532); experiment: decrease of HSF1-responsive luciferase luminescence – cell-based, NIH3T3, dose retest, confirmation (AID 2382); type: functional;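 note: NIH3T3 fibroblasts with HSF1-driven luciferase reporter stressed by proteasome inhibitor MG132; luminescence from HSF1-driven luciferase expression after 8 hours of MG132 stress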
T8 sequence (P38532 whole entry): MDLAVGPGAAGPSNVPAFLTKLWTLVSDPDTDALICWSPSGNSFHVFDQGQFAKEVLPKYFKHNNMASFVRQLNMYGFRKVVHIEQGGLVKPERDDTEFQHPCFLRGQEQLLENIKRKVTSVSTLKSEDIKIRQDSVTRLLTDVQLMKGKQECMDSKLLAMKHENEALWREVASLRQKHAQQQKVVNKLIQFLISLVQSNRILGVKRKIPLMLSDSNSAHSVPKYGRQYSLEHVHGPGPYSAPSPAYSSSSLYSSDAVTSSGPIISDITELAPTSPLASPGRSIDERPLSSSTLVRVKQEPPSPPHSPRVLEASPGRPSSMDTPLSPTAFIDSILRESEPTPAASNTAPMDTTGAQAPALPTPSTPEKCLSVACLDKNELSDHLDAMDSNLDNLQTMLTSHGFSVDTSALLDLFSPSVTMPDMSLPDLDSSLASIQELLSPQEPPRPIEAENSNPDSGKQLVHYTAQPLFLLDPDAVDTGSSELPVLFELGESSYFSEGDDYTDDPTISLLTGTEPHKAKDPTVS

[16] = target: T9, Microphthalmia-associated transcription factor (Homo sapiens, UniProt O75030); experiment: reducers of TRPM1 reporter luminescence, concentration series – cell-based, SK-MEL-5, cherry-picked, set 3, MITF inhibitor project, dose response (AID 493073); type: functional;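 note: SK-MEL-5 melanoma cells with luciferase driven by the MITF target TRPM1 promoter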
T9 sequence (O75030 whole entry): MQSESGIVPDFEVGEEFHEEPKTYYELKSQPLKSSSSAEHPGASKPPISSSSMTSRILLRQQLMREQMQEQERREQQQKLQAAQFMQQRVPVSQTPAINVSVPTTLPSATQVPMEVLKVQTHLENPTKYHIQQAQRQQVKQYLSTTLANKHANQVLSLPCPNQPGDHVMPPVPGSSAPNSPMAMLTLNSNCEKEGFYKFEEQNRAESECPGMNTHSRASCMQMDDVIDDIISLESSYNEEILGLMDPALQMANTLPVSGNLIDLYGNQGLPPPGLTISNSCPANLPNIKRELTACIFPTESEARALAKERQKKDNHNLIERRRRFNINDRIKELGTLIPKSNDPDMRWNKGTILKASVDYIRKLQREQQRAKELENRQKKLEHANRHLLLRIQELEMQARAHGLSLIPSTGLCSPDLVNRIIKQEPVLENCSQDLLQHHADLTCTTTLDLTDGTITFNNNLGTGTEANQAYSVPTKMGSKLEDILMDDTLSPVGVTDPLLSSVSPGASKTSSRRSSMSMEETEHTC

[17] = target: T10, Sphingosine 1-phosphate receptor 4 (Homo sapiens, UniProt O95977); experiment: Fluorescence dose response cell-based high throughput screening assay for antagonists of the Sphingosine 1-Phosphate Receptor 4 (S1P4). [Related pubchem assays: 1524 (Confirmation in triplicates.), 1510 (Primary screen.)]; type: functional
T10 sequence (O95977 whole entry): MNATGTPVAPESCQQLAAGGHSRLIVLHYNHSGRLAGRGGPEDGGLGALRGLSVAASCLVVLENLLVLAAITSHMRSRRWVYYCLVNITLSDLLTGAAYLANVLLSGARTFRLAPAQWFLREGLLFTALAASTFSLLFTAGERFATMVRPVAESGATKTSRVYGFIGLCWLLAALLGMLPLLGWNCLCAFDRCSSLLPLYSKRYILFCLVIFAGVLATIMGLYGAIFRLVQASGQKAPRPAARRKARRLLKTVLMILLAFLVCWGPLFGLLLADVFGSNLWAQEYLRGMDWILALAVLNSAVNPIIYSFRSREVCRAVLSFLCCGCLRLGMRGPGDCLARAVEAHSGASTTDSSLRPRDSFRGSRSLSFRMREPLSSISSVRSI

[18] = viability of PTEN-deleted HCT116 cells – cell-based, HCT116 PTEN knockout, dose response (AID 1047); type: functional;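 note: HCT116 colon tumor cells with PTEN knocked out; cells exposed to compound for 60 hours before readout; potency for loss of cell viability measured by luminescence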
[19] = reduction of Shn3 3'UTR-driven luciferase in osteoblasts – cell-based, Clone20 osteoblasts, firefly luciferase, cherry-picked, dose response (AID 624132); type: functional;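 note: firefly luciferase luminescence from reporter carrying the Shn3 3'UTR in osteoblasts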
[20] = target: Sphingosine 1-phosphate receptor 1 (Homo sapiens, UniProt P21453); type: functional;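 note: Tango beta-arrestin reporter U2OS cells stimulated with S1P near its EC80; inhibitor potency meaning antagonism of receptor activation by the natural agonist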
[21] = target: Neurotensin receptor type 1 (Homo sapiens, UniProt P30989); type: functional;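 note: Image-based confirmatory dose-response assay measuring agonist activity at NTR1; NTR1-expressing U2OS osteosarcoma cells imaged for beta-arrestin GFP spot formation; agonist potency where compounds increase beta-arrestin recruitment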
Chain of Neurotensin receptor type 1 (P30989 whole entry): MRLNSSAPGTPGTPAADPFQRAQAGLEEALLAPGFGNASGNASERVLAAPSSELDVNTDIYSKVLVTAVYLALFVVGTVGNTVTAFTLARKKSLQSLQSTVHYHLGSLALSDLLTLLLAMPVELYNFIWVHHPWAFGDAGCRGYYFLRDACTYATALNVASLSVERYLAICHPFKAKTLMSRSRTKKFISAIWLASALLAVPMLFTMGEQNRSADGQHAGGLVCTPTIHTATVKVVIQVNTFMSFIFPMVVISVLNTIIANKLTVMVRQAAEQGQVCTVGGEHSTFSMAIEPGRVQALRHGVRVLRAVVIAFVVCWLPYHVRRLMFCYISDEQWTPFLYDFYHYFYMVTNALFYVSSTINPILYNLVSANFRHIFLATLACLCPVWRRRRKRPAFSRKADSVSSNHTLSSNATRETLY

Chain of Trypsin (P00761 whole entry): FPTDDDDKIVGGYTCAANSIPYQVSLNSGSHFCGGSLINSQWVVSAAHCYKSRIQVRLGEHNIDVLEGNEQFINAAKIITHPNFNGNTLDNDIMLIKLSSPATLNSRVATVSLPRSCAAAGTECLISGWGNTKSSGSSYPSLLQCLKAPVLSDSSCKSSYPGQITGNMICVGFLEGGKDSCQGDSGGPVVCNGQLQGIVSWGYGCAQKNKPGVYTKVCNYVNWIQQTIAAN
Chain of Sphingosine 1-phosphate receptor 1 (P21453 whole entry): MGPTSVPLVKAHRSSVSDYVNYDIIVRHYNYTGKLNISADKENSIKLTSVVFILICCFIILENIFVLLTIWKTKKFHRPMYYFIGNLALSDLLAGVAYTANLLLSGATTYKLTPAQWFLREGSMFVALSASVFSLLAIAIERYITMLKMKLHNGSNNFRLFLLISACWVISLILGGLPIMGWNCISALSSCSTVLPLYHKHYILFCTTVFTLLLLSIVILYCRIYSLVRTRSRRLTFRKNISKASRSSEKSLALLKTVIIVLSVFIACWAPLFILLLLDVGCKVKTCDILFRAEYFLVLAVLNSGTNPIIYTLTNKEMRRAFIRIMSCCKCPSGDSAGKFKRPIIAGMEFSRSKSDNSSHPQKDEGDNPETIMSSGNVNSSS

N=C(N)c1ccc(/C=C/c2ccc(C(=N)N)cc2O)cc1
IC50 [1]: 39 µM (active) | AC50 (CAAX prenyl protease 2): > 100 µM (inactive) | EC50 [2]: 0.529 µM (active) | CC50 [3]: > 100 µM (active) | IC50 (Bcl-2-related protein A1): > 20 µM (inactive) | IC50 [4]: 3.61 µM (active) | EC50 (Streptokinase A): 20 µM (active) | EC50 [5]: > 99 µM (inactive) | AC50 (Escherichia coli): 37.7 µM (active) | EC50 [6]: 1.43 µM (active) | EC50 (Streptococcus): > 150 µM (not active) | EC50 [7]: > 50 µM (active) | EC50 [8]: 4.77 µM (active) | EC50 [9]: > 150 µM (inactive) | AC50 [10]: 0.708 µM (active) | AC50 (Trypsin): 3.15 µM (active) | IC50 [11]: 2.8 µM (active)

COc1ccc(Oc2cc(NC(=O)c3nn(C)cc3[N+](=O)[O-])cc([N+](=O)[O-])c2)cc1
AC50 [12]: 21.1 µM (active) | AC50 [13]: 5.01 µM (active) | EC50 [14]: 0.17 µM (active) | EC50 [15]: 8.9 µM (inconclusive) | AC50 [16]: 8.94 µM (active) | IC50 [17]: 1.08 µM (active) | EC50 [18]: 0.219 µM (active) | AC50 [19]: 0.813 µM (active) | IC50 [20]: 17.4 µM (not active) | EC50 [21]: 8.91 µM (active)

From ChEMBL document CHEMBL1201862, “PubChem BioAssay data set” (2004)
